Test results published in ChEMBL document CHEMBL1149095, “Structure-based optimization of novel azepane derivatives as PKB inhibitors” (J Med Chem, 2004).

Columns and labels:
[1] = Half life in mice plasma; type: ADME, organism-based; conditions: mouse
[2] = molecular target: RAC-alpha serine/threonine-protein kinase (Homo sapiens, UniProt P31749); experiment: Inhibition of Protein kinase B alpha
[3] = molecular target: cAMP-dependent protein kinase A (Bos taurus, UniProt P00515+P00517+P05131+P31322); experiment: Inhibition of bovine protein kinase A (PKA); type: protein-complex assay

Sequence of RAC-alpha serine/threonine-protein kinase (P31749 whole entry): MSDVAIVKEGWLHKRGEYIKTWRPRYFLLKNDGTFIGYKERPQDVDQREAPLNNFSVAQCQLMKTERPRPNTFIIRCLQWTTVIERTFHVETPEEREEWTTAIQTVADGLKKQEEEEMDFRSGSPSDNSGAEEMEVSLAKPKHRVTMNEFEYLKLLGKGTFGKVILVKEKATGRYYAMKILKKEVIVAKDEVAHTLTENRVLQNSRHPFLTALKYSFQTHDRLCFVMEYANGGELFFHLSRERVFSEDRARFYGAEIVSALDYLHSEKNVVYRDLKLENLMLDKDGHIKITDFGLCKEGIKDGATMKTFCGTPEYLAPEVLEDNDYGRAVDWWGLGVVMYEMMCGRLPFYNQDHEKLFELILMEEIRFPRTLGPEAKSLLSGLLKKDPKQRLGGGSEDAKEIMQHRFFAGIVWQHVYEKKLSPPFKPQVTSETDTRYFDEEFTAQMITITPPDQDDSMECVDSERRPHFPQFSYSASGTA

| half-life [1] [h] | IC50 [2] [nM] | IC50 [3] [nM] | SMILES |
| --- | --- | --- | --- |
| 69 |  |  | COc1ccc(O)c(C(=O)c2ccc(C(=O)N[C@@H]3CCCNCC3NC(=O)c3ccncc3)cc2)c1F.Cl.Cl (stereo not given in full) |
| 161 | 3000 | 800 | COc1ccc(O)c(C(=O)c2ccc(CN[C@@H]3CCCNC[C@H]3NC(=O)c3ccncc3)cc2)c1F.Cl |
| < 0.0167 |  |  | COc1ccc(O)c(C(=O)c2ccc(C(=O)O[C@@H]3CCCNCC3NC(=O)c3ccncc3)cc2)c1F.Cl.Cl (stereo not given in full) |

Further lines, the molecule ahead of its results:

| SMILES | half-life [1] [h] | IC50 [2] [nM] | IC50 [3] [nM] |
| --- | --- | --- | --- |
| COc1ccc(O)c(C(=O)c2ccc(CO[C@@H]3CCCNCC3NC(=O)c3ccncc3)cc2)c1F.Cl.Cl (stereo not given in full) | 29 | 355 |  |
| COc1ccc(O)c(C(=O)c2ccc(/C=C/[C@@H]3CCCNC[C@H]3NC(=O)c3ccncc3)cc2)c1F |  | 160 |  |
| COc1ccc(O)c(C(=O)c2ccc(NC[C@@H]3CCCNCC3NC(=O)c3ccncc3)cc2)c1F (stereo not given in full) |  | 25000 | 45000 |
